Measurements as given in patent US20230203044A1, “PYRAZOLO[1,5-D][1,2,4]TRIAZINE-5(4H)-ACETAMIDES AS INHIBITORS OF THE NLRP3 INFLAMMASOME” (JANSSEN PHARMACEUTICA NV, priority 2020, published 2023).

Assays:
NLRP3 inflammasome = assay: PBMC assay: IL-1β in LPS-stimulated human PBMCs (MSD); type: cell-based; details: human PBMCs, 100 ng/ml LPS for 6 hrs, IL-1β in supernatant via MSD, read-out: IL1β IC50
Method: The activity of a compound according to the present invention can be assessed by in vitro methods.
Peripheral venous blood was collected from healthy individuals and human peripheral blood mononuclear cells (PBMCs) were isolated from blood by Ficoll-Histopaque (Sigma-Aldrich, A0561) density gradient centrifugation. After isolation, PBMCs were stored in liquid nitrogen for later use. Upon thawing, PBMC cell viability was determined in growth medium (RPMI media supplemented with 10% fetal bovine serum, 1% Pen-Strep and 1% L-glutamine). […] PBMCs were added at a density of 7.5×10^4 cells per well and incubated for 30 min in a 5% CO2 incubator at 37° C. LPS stimulation was performed by addition of 100 ng/ml LPS (final concentration, Invivogen, tlrl-smlps) for 6 hrs followed by collection of cellular supernatant and the analysis of IL-1β (μM) and TNF cytokines levels (μM) via MSD technology according to manufacturers' guidelines (MSD, K151A0H).

TNF = assay: PBMC assay: TNF cytokine levels in LPS-stimulated human PBMCs (MSD); type: cell-based; details: 100 ng/ml LPS for 6 hrs, TNF in supernatant via MSD
Method: Peripheral venous blood was collected from healthy individuals and human peripheral blood mononuclear cells (PBMCs) were isolated from blood by Ficoll-Histopaque (Sigma-Aldrich, A0561) density gradient centrifugation. After isolation, PBMCs were stored in liquid nitrogen for later use. Upon thawing, PBMC cell viability was determined in growth medium (RPMI media supplemented with 10% fetal bovine serum, 1% Pen-Strep and 1% L-glutamine). Compounds were spotted in a 1:3 serial dilution in DMSO and diluted to the final concentration in 30 μl medium in 96 well plates (Falcon, 353072). PBMCs were added at a density of 7.5×10^4 cells per well and incubated for 30 min in a 5% CO2 incubator at 37° C. LPS stimulation was performed by addition of 100 ng/ml LPS (final concentration, Invivogen, tlrl-smlps) for 6 hrs followed by collection of cellular supernatant and the analysis of IL-1β (μM) and TNF cytokines levels (μM) via MSD technology according to manufacturers' guidelines (MSD, K151A0H).
The IC50 values (for IL-1β) and EC50 values (TNF) were obtained on compounds of the invention/examples, and are depicted in the following table: […]

Row | Compound | IC50 (NLRP3 inflammasome) | EC50 (TNF)
1 | CC(C)c1nn(CC(=O)N[C@@H]2CCC(=O)N(CC3CC3)C2)c(=O)c2cc(C3CC3)nn12 [Final Cpd 26] | > 10000 nM | > 10000 nM
2 | CC(C)c1nn(CC(=O)N[C@H]2C[C@@](C)(O)C2)c(=O)c2cc(C(O)C(F)(F)F)nn12 (some centres unmarked) [Final Cpd 158] | > 10000 nM | > 10000 nM
3 | CC(C)c1nn(CC(=O)N[C@H]2C[C@@](C)(O)C2)c(=O)c2cc(I)nn12 [Final Cpd 24] | 110 nM | > 10000 nM
4 | CC(C)c1nn(CC(=O)N[C@H]2CN(C3CCC3)CC[C@H]2O)c(=O)c2cc(C3CC3)nn12 [Final Cpd 191, N-((3 S,4R)-1-cyclobutyl-4-hydroxypiperidin-3-yl)-2-(2-cyclopropyl-7-isopropyl-4-oxopyrazolo[1,5-d][1,2,4]triazin-5(4H)-yl)acetamide] | – | > 10000 nM
5 | C[C@]1(O)C[C@@H](NC(=O)Cn2nc(CC3CCC3)n3nc(C4CC4)cc3c2=O)C1 [Final Cpd 198] | > 10000 nM | > 10000 nM
6 | CCC(C)c1nn(CC(=O)N[C@H]2C[C@@](C)(O)C2)c(=O)c2cc(C3CC3)nn12 (some centres unmarked) [Final Cpd 201] | > 10000 nM | > 10000 nM
7 | Cc1nn(CC(=O)NC2(CO)CCCC2)c(=O)c2cc(C3CC3)nn12 [Final Cpd 57] | > 10000 nM | > 10000 nM
8 | COc1ncc(NC(=O)Cn2nc(C(C)C)n3nc(C4CC4)cc3c2=O)cn1 [Final Cpd 107] | 4230 nM | > 10000 nM
9 | O=C(Cn1nc(C2CC2)n2nc(C3CC3)cc2c1=O)Nc1ccc2nncn2n1 [Final Cpd 163, N-([1,2,4]triazolo[4,3-b]pyridazin-6-yl)-2-(2,7-dicyclopropyl-4-oxopyrazolo[1,5-d][1,2,4]triazin-5(4H)-yl)acetamide] | 620 nM | > 10000 nM
10 | COCCNc1nn(CC(=O)Nc2ccc3nncn3c2)c(=O)c2cc(C3CC3)nn12 [Final Cpd 39] | 2490 nM | > 10000 nM
11 | Cc1nccc(NC(=O)Cn2nc(C(C)C)n3nc(C4CC4)cc3c2=O)c1F [Final Cpd 97] | 200 nM | > 10000 nM
12 | CC(C)c1nn(CC(=O)Nc2ccc(=O)n(CC3CC3)c2)c(=O)c2cc(C3CC3)nn12 [Final Cpd 35] | 380 nM | > 10000 nM
13 | CC(C)c1nn(CC(=O)Nc2ccc3nccn3c2)c(=O)c2cc(C3CC3)nn12 [Final Cpd 91] | 310 nM | > 10000 nM
14 | Cc1nn(CC(=O)N[C@H]2CCN(Cc3ccncc3)C2)c(=O)c2cc(C3CC3)nn12 [Final Cpd 59] | > 10000 nM | > 10000 nM
15 | CC(C)c1cc2c(=O)n(CC(=O)Nc3ccncn3)nc(C(C)C)n2n1 [Final Cpd 3] | 280 nM | > 10000 nM
16 | C[C@]1(O)C[C@@H](NC(=O)Cn2nc(CCCC(F)(F)F)n3nc(C4CC4)cc3c2=O)C1 [Final Cpd 195, 2-(2-cyclopropyl-4-oxo-7-(4,4,4-trifluorobutyl)pyrazolo[1,5-d][1,2,4]triazin-5(4H)-yl)-N-((ls,3s)-3-hydroxy-3-methylcyclobutyl)acetamide] | > 10000 nM | > 10000 nM

Row | Compound | IC50 (NLRP3 inflammasome) | EC50 (TNF)
17 | CC(C)c1nn(CC(=O)N[C@H]2C[C@@](C)(O)C2)c(=O)c2c(N)c(C3CC3)nn12 [Final Cpd 181, 2-(3-amino-2-cyclopropyl-7-isopropyl-4-oxopyrazolo[1,5-d][1,2,4]triazin-5(4H)-yl)-N-((ls,3s)-3-hydroxy-3-methylcyclobutyl)acetamide] | 480 nM | > 10000 nM
18 | CC(C)c1nn(CC(=O)Nc2cccnc2)c(=O)c2cc(C3CC3)nn12 [Final Cpd 119] | 520 nM | > 10000 nM
19 | Cc1nc2ccc(NC(=O)Cn3nc(C(C)C)n4nc(C5CC5)cc4c3=O)cn2n1 [Final Cpd 89] | 230 nM | > 10000 nM
20 | CC(C)c1nn(CC(=O)Nc2cc(C(F)F)[nH]n2)c(=O)c2cc(C3CC3)nn12 [Final Cpd 85] | 340 nM | > 10000 nM
21 | CC(C)c1nn(CC(=O)Nc2ccncn2)c(=O)c2cc(N(C)C)nn12 [Final Cpd 22] | 1350 nM | > 10000 nM
22 | CC(C)c1cc2c(=O)n(CC(=O)Nc3ccc4nncn4c3)nc(C(C)O)n2n1 (centres unmarked) [Final Cpd 155] | 1140 nM | > 10000 nM
23 | CC(C)c1nn(CC(=O)Nc2ccc3nncn3c2)c(=O)c2cc(C(C)(F)F)nn12 [Final Cpd 175, N-([1,2,4]triazolo[4,3-a]pyridin-6-yl)-2-(2-(1,1-difluoroethyl)isopropyl-4-oxopyrazolo[1,5-d][1,2,4]triazin-5(4H)-yl)acetamide] | 220 nM | > 10000 nM
24 | CC(C)c1nn(CC(=O)Nc2ccncn2)c(=O)c2cc(C3CC3)nn12 [Final Cpd 11] | 170 nM | > 10000 nM
25 | Cc1nn(CC(=O)NC2CN([C@H](c3ccccc3)c3cncnc3)C2)c(=O)c2cc(C3CC3)nn12 [Final Cpd 60] | > 10000 nM | > 10000 nM
26 | CCc1nn(CC(=O)N[C@H]2C[C@@](C)(O)C2)c(=O)c2cc(I)nn12 [Final Cpd 7] | 600 nM | > 10000 nM
27 | COc1nccc(NC(=O)Cn2nc(C(C)C)n3nc(C4CC4)cc3c2=O)n1 [Final Cpd 132] | 720 nM | > 10000 nM
28 | CC(C)c1nn(CC(=O)Nc2ccc3nncn3c2)c(=O)c2cc(CC(F)(F)F)nn12 [Final Cpd 159] | 2240 nM | > 10000 nM
29 | CCNc1cc2c(=O)n(CC(=O)N[C@H]3C[C@@](C)(O)C3)nc(C(C)C)n2n1 [Final Cpd 73] | 110 nM | > 10000 nM
30 | CC(C)c1nn(CC(=O)Nc2ccc3nncn3c2)c(=O)c2cc(NCC(F)(F)F)nn12 [Final Cpd 42] | 220 nM | > 10000 nM
31 | CC(C)c1nn(CC(=O)Nc2ccc3nncn3c2)c(=O)c2cc(I)nn12 [Final Cpd 23] | 55 nM | > 10000 nM
32 | CCOC(=O)C1CC(Cc2cc3c(=O)n(CC(=O)Nc4ccnnc4)nc(C(C)C)n3n2)C1 (centres unmarked) [Final Cpd 177, ethyl 3-((7-isopropyl-4-oxo-5-(2-oxo-2-(pyridazin-4-ylamino)ethyl)-4,5-dihydropyrazolo[1,5-d][1,2,4]triazin-2-yl)methyl)cyclobutane-1-carboxylate] | 2060 nM | –

Continued, values first:

Row | IC50 (NLRP3 inflammasome) | EC50 (TNF) | Compound
33 | 3000 nM | > 10000 nM | CC(C)c1cc2c(=O)n(CC(=O)N[C@H]3C[C@@](C)(O)C3)nc(C(C)O)n2n1 (some centres unmarked) [Final Cpd 154]
34 | > 10000 nM | > 10000 nM | Cc1nn(CC(=O)NCc2ccc(F)cc2)c(=O)c2cc(C3CC3)nn12 [Final Cpd 47]
35 | > 10000 nM | > 10000 nM | COc1ccc(-c2nn(CC(=O)N[C@H]3C[C@@](C)(O)C3)c(=O)c3cc(C4CC4)nn23)cc1 [Final Cpd 199, 2-(2-cyclopropyl-7-(4-methoxyphenyl)-4-oxopyrazolo [1,5-d] [1,2,4]triazin-5(4H)-yl)-N-((1 s,3 s)-3-hydroxy-3-methylcyclobutyl)acetamide]
36 | 1410 nM | > 10000 nM | CC(C)c1nn(CC(=O)Nc2ccn3c(F)cnc3c2)c(=O)c2cc(C3CC3)nn12 [Final Cpd 136]
37 | 610 nM | > 10000 nM | CC[C@]1(O)C[C@@H](NC(=O)Cn2nc(C(C)C)n3nc(C4CC4)cc3c2=O)C1 [Final Cpd 192, 2-(2-cyclopropyl-7-isopropyl-4-oxopyrazolo[1,5-d][1,2,4]triazin-5(4H)-yl)-N-((1r,3s)-3-ethyl-3-hydroxycyclobutyl)acetamide]
38 | 550 nM | > 10000 nM | Cc1nccc(NC(=O)Cn2nc(C(C)C)n3nc(C4CC4)cc3c2=O)c1Cl [Final Cpd 120]
39 | 100 nM | > 10000 nM | CC(C)c1cc2c(=O)n(CC(=O)Nc3ccc4nncn4c3)nc(C(C)C)n2n1 [Final Cpd 143]
40 | > 10000 nM | > 10000 nM | CC(C)c1nn2c(N(C)C)nn(CC(=O)Nc3ccncn3)c(=O)c2c1Br [Final Cpd 151]
41 | 400 nM | > 10000 nM | CC(C)c1cc2c(=O)n(CC(=O)Nc3ccncn3)nc(N(C)C)n2n1 [Final Cpd 147]
42 | 1140 nM | > 10000 nM | CCc1nn(CC(=O)Nc2ccncn2)c(=O)c2cc(NC)nn12 [Final Cpd 20]
43 | 220 nM | > 10000 nM | Cc1nnc2ccc(NC(=O)Cn3nc(C(C)C)n4nc(C5CC5)cc4c3=O)nn12 [Final Cpd 171]
44 | > 10000 nM | > 10000 nM | Cc1nn(CC(=O)NC2(C(F)(F)F)CCOC2)c(=O)c2cc(C3CC3)nn12 (centres unmarked) [Final Cpd 51]
45 | 880 nM | > 10000 nM | CC(C)c1nn(CC(=O)N[C@H]2C[C@@](C)(O)C2)c(=O)c2cc(NCC(F)(F)F)nn12 [Final Cpd 41]
46 | 1290 nM | > 10000 nM | CC(C)c1nn(CC(=O)NC2CC(C(C)(C)O)C2)c(=O)c2cc(C3CC3)nn12 (centres unmarked) [Final Cpd 88]
47 | 64 nM | > 10000 nM | COC(=O)C12CC(NC(=O)Cn3nc(C)n4nc(C5CC5)cc4c3=O)(C1)C2 [Final Cpd 61]
